In ChEMBL document CHEMBL2390884, “Design, synthesis and antiproliferative activity studies of novel 1,2,3-triazole-dithiocarbamate-urea hybrids” (Eur J Med Chem, 2013):

What was measured:
Type in all cases: functional, cell-based
[1] = Cytotoxicity against human EC9706 cells after 72 hrs by MTT assay; conditions: EC9706, 72 h
MGC-803 = experiment: Cytotoxicity against human MGC803 cells after 72 hrs by MTT assay; conditions: MGC-803, 72 h
MCF7 = experiment: Cytotoxicity against human MCF7 cells after 72 hrs by MTT assay; conditions: MCF7, 72 h
SMMC-7721 = experiment: Cytotoxicity against human SMMC7721 cells after 72 hrs by MTT assay; conditions: SMMC-7721, 72 h

## CC(C)NC(=O)N1CCN(C(=S)SCc2cn(Cc3ccc(Cl)cc3)nn2)CC1
[1]
  IC50: 25.6 µM
MGC-803
  IC50: 19.9 µM
MCF7
  IC50: > 128 µM
SMMC-7721
  IC50: > 128 µM

## COc1cc(Cn2cc(CSC(=S)N3CCN(C(N)=O)CC3)nn2)cc(OC)c1OC
[1]
  IC50: > 128 µM
MGC-803
  IC50: > 128 µM
MCF7
  IC50: > 128 µM
SMMC-7721
  IC50: > 128 µM

## CCNC(=O)N1CCN(C(=S)SCc2cn(Cc3ccc(C)cc3)nn2)CC1
[1]
  IC50: > 128 µM
MGC-803
  IC50: 19.8 µM
MCF7
  IC50: > 128 µM
SMMC-7721
  IC50: > 128 µM

## O=C(NCc1ccccc1)N1CCN(C(=S)SCc2cn(Cc3ccccc3F)nn2)CC1
[1]
  IC50: 38.1 µM
MGC-803
  IC50: 13.3 µM
MCF7
  IC50: 38.1 µM
SMMC-7721
  IC50: > 128 µM

## CCN(C)C(=O)N1CCN(C(=S)SCc2cn(Cc3cc(OC)c(OC)c(OC)c3)nn2)CC1
[1]
  IC50: > 128 µM
MGC-803
  IC50: 85.7 µM
MCF7
  IC50: 68.5 µM
SMMC-7721
  IC50: > 128 µM

## CCNC(=O)N1CCN(C(=S)SCc2cn(Cc3ccccc3F)nn2)CC1
[1]
  IC50: 23.7 µM
MGC-803
  IC50: 2.83 µM
MCF7
  IC50: 5.76 µM
SMMC-7721
  IC50: > 128 µM

## CC(C)(C)NC(=O)N1CCN(C(=S)SCc2cn(Cc3ccccc3F)nn2)CC1
[1]
  IC50: 87.8 µM
MGC-803
  IC50: 40.7 µM
MCF7
  IC50: 18.8 µM
SMMC-7721
  IC50: > 128 µM

## CCNC(=O)N1CCN(C(=S)SCc2cn(Cc3ccc(OC)cc3)nn2)CC1
[1]
  IC50: > 128 µM
MGC-803
  IC50: > 128 µM
MCF7
  IC50: 97.6 µM
SMMC-7721
  IC50: > 128 µM

## CCN(C)C(=O)N1CCN(C(=S)SCc2cn(Cc3ccc(F)cc3)nn2)CC1
[1]
  IC50: 14.3 µM
MGC-803
  IC50: 1.55 µM
MCF7
  IC50: 2.15 µM
SMMC-7721
  IC50: 23.7 µM

## Cc1ccc(Cn2cc(CSC(=S)N3CCN(C(N)=O)CC3)nn2)cc1
[1]
  IC50: > 128 µM
MGC-803
  IC50: 29.9 µM
MCF7
  IC50: > 128 µM
SMMC-7721
  IC50: > 128 µM

## CCNC(=O)N1CCN(C(=S)SCc2cn(Cc3ccc(F)cc3)nn2)CC1
[1]
  IC50: 27.8 µM
MGC-803
  IC50: 2.17 µM
MCF7
  IC50: 3.66 µM
SMMC-7721
  IC50: 44.4 µM

## NC(=O)N1CCN(C(=S)SCc2cn(Cc3ccc(Cl)cc3)nn2)CC1
[1]
  IC50: > 128 µM
MGC-803
  IC50: > 128 µM
MCF7
  IC50: > 128 µM
SMMC-7721
  IC50: > 128 µM

## CCN(C)C(=O)N1CCN(C(=S)SCc2cn(Cc3ccccc3F)nn2)CC1
[1]
  IC50: 15.6 µM
MGC-803
  IC50: 5.86 µM
MCF7
  IC50: 7.21 µM
SMMC-7721
  IC50: 19.7 µM

## CCNC(=O)N1CCN(C(=S)SCc2cn(Cc3cc(OC)c(OC)c(OC)c3)nn2)CC1
[1]
  IC50: > 128 µM
MGC-803
  IC50: 101 µM
MCF7
  IC50: > 128 µM
SMMC-7721
  IC50: > 128 µM
